Test results published in US5932580A, “PDGF receptor kinase inhibitory compounds their preparation and compositions” (priority 1997, dated 1999).

Assays:
PDGF β-receptor = biological target: T1, PDGF β-receptor (Sus scrofa, UniProt F1RL75); test: PDGF induced PDGFR autophosphorylation in intact SMC cells; type: cell-based; conditions: porcine arterial SMC; for inhibition of PDGF-BB induced PDGF β-receptor tyrosine-phosphorylation: tyrphostin 10 μM, 60 min preincubation, PDGF-BB 100 ng/ml
T1 construct: PDGF-BB stimulated; immunoprecipitated with PDGF beta-receptor specific antiserum R3
Procedure: Effect of tyrphostins on PDGF induced PDGFR autophosphorylation in intact SMC cells: Subconfluent porcine arterial smooth muscle cells, cultivated in Dulbecco's modified Eagle's medium (DMEM) supplemented with 15% fetal calf serum (FCS), were synchronized for 20 hours in a medium containing 2% FCS. […] After stimulation, the cells were solubilized in Nonidet P-40 (1%) containing lysis buffer.
The analysis of PDGF p-receptor phosphorylation was performed as follows. Cell lysates were subjected to immunoprecipitation using the PDGF β-receptor specific antiserum R3 [5]. The percipitates were subjected to polyacrylamide (7.5%) gel electrophoresis in presence of sodium deducyl sulfate (SDS-PAGE) and were thereafter blotted onto a nitrocellulose membrane (Hybond C-EXTRA, Amersham). Phosphorylated proteins were detected by immunoblotting using the horseradish-peroxidase conjugated phosphotyrosine antibody RC20H (Transduction Laboratories), followed by chemoluminescence-based detection (ECL, Amersham) and autoradiography.
Detection of receptor proteins was performed as follows. Cell lysates were subjected to immunoprecipitation using the PDGF β-receptor specific antiserum R3 [5], as described above, and the percipitates washed three times and thereafter subjected to SDS-PAGE (7.5%) and blotting onto a nitrocellulose membrane (Hybond C-EXTRA, Amersham). Receptor proteins were detected by immunoblotting using the horseradish-peroxidase conjugated donkey anti-rabbit antibody (Amersham), followed by chemoluminescence-based detection (ECL, Amersham) and autoradiography.

EGFR = biological target: T2, EGFR (Mus musculus, UniProt Q01279); test: EGFR autophosphorylation, isolated membranes or intact Swiss 3T3 cells; type: biochemical; conditions: read-out: IC50 (50% inhibition of phosphorylation) EGFR
T2 construct: Membranes were prepared from confluent cultures of Swiss 3T3 cells; endogenous in cells; host or cells: Swiss 3T3 (obtained from E. Rozengurt, London)
Procedure: Assay of receptor autophosphorylation in intact 3T3 cells: Confluent Swiss 3T3 cells in 24-well plates (Nunc) were incubated for 20-24 hours in serum-free DMEM. Subsequently, tyrphostins were added at concentrations ranging from 0 to 100 μM (final DMSO concentration, 0.5%) and the incubation was continued for 6-8 hours. The cells were then stimulated with 100 ng/ml PDGF-BB for 5 min at room temperature or 600 ng/ml EGF for 2.5 min on ice. The growth factor treatment was terminated by washing twice with ice-cold PBS and the cells were scraped off the wells in 60 μl lysis buffer containing 20 mM Hepes (pH 7.4), 150 mM NaCl, 1% Triton X-100, 10 mM sodium pyrophosphate, 50 mM NaF, 2 mM sodium-o-vanadate, 20 μm zinc acetate, 10 nM EDTA, 2 mM [ethylenebis(oxyethilenenitrilo)] tetraacetic acid, 1 mM phenylmethylsulfonyl fluoride, and 5 μg/ml leupeptin.
The cell lysates were clarified by centrifugation (cooled microfuge, 17,000 rpm, 15 min) and analyzed by SDS-PAGE (6.5% gels) and immunoblotting with anti-phosphotyrosine antibodies (either PY 20, ICN, and subsequently a peroxidase-coupled secondary antibody, or RC20-peroxidase conjugate, Affinity, Nottingham, United Kingdom). The blots were developed with a chemiluminescence detection system (Western Light, Tropix, or ECL, Amersham).
Membrane autophosphorylation assays: Membranes were prepared from confluent cultures of Swiss 3T3 cells as described [22]. For measuring receptor autophosphorylation, 10 μg membrane protein per assay were incubated for 20 min on ice in the presence of 1.2 μg/ml EGF or 2 μg/ml PDGF, or both; 50 mM Hepes (pH 7.5); and 3 mm MnCl2 (final concentrations) in a volume of 45 μl. In order to test the effects and determine the IC50 value of various tyrphostins, these were added in a volume of 0.5 μl (in DMSO; final concentration, 0.5%) 15 min before addition of the growth factors, in a range of concentrations. […] For quantification of radioactivity in electrophoresis gels, a Phospho-Imager (Molecular Dynamics, Fuji, or Bio-Rad) was used according to the instructions of the manufacturers. […]

[1] = tested on: human internal mammary artery smooth muscle cells (IMA SMC); test: Inhibition of cell proliferation and recovery, human IMA SMC; type: cell-based
Source text: Smooth muscle cells (SMC) were obtained under aseptic conditions from porcine abdominal aortas, and human internal mammary arteries (IMA). Specimens from the operating room were transferred on ice to the tissue culture room. Each artery was cut open and the endothelial surface mechanically scraped. The vessels were then cut into 2 mm^2 fragments which were placed in culture dishes with Dulbecco's modified Eagle's medium (DMEM) supplemented with 15% (v/v) fetal calf serum (FCS), 100 u/ml penicillin, 100 μg/ml streptomycin, and […] L-glutamine. The tissue fragments were then placed in an incubator at 37° C. under 9% CO2 atmosphere until SMC outgrowth was detected (typically within 3-7 days). […] For experiments testing the effect of tyrphostins on growth inhibition and recovery (see below), SMC from passages 1-3 were replated in 15 mm wells pretreated with 3 μg/cm^2 fibronectin (Biological Industries, Kibbutz Beit Haemek, Israel) at 15,000 cells/well.
Inhibition of cell proliferation and recovery: Monolayer cell growth inhibition and recovery experiments were repeated 3 or 4 times. Each experiment was performed in triplicate. Approximately 15,000 cells (SMC or EC) in 1 ml of culture medium supplemented with 15% FCS were seeded on day 0 in 15 mm-wells precoated with fibronectin. Cultures were treated with a tyrphostin (10 μM) dissolved in 0.1% DMSO on days 1 and 3. On day 6, cultures were washed and the cells allowed to recover. Typically cells were counted on days 3 and 5 for inhibition, and on days 7, 10 and 15 for recovery, other schedules were also employed as reported below. The medium supplemented with serum (M-199 with ECGS for EC, and DMEM for SMC) was changed every other day throughout the experiment.
FIG. 9 presents the maximal inhibitory and recovery effects on human IMA SMC growth inflicted by 10 or 25 μM of AG1851 and AG1295. Cells were grown in the presence of the specified tyrphostins and were counted after seven days in culture. On day 7 the cultures were washed and the cells allowed to recover. Seven days later they were counted for recovery. The bar graph show the maximal inhibition and the recovery in each experiment and for controls.

[2] = tested on: porcine endothelial cells (EC); test: Inhibition of cell proliferation and recovery, porcine EC; type: cell-based; conditions: Sus scrofa, Endothelial cell; FIG. 8 experiment; 10 μM; read-out: maximal inhibitory effect on porcine EC proliferation
Source text: Endothelial cells (EC) were isolated from porcine carotid arteries. Using aseptic procedure, both common carotid arteries were isolated, and the distal end of each artery was cannulated through an arteriotomy and ligated. The arteries were then perfused with phosphate buffered saline (PBS) and the proximal end ligated isolating a 5-7 cm long blood-free portion of the artery. The isolated portion of each artery was filled with PBS containing calcium and magnesium and 0.1% collagenase (Boehringer Manneheim, Germany). The segments were excised and incubated for 10 min at 37° C. in sterile bottles containing PBS. […] Cells were seeded on fibronectin-coated dishes at a seeding density of 15,000 cells/well and incubated at 37° C. in 9% CO2. ECGS (25 μg/ml) was added every other day until confluence was observed, typically within 6-8 days.
Inhibition of cell proliferation and recovery: Monolayer cell growth inhibition and recovery experiments were repeated 3 or 4 times. Each experiment was performed in triplicate. […] Cultures were treated with a tyrphostin (10 μM) dissolved in 0.1% DMSO on days 1 and 3. On day 6, cultures were washed and the cells allowed to recover. Typically cells were counted on days 3 and 5 for inhibition, and on days 7, 10 and 15 for recovery, other schedules were also employed as reported below.

T1 sequence (F1RL75 109-1181): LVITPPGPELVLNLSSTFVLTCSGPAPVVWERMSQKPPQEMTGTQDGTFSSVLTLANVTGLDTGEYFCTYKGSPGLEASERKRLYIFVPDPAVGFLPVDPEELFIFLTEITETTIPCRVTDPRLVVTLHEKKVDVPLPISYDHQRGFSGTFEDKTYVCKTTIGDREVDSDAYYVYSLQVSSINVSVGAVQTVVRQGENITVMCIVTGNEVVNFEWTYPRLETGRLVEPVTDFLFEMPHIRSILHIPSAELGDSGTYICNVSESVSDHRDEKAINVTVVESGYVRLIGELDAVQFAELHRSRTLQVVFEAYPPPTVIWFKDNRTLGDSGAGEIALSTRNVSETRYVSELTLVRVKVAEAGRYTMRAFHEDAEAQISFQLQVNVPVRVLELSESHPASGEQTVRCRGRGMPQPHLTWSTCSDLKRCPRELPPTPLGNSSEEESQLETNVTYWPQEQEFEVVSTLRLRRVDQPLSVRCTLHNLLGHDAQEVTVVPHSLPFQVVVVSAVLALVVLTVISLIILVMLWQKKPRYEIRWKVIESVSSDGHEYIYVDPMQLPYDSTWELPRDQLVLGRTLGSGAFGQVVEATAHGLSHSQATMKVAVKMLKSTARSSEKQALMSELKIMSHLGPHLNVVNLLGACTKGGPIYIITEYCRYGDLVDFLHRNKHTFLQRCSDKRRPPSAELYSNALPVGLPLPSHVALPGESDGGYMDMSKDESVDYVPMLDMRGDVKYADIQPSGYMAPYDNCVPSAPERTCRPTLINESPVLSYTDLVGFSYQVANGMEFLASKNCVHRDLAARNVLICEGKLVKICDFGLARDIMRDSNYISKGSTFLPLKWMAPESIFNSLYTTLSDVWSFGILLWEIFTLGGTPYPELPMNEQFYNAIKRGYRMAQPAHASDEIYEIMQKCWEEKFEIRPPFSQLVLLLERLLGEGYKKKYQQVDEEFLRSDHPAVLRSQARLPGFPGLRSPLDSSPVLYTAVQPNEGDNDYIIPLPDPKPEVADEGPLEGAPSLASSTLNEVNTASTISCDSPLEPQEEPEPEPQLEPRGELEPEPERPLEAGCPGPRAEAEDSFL
T2 sequence (Q01279 25-1210): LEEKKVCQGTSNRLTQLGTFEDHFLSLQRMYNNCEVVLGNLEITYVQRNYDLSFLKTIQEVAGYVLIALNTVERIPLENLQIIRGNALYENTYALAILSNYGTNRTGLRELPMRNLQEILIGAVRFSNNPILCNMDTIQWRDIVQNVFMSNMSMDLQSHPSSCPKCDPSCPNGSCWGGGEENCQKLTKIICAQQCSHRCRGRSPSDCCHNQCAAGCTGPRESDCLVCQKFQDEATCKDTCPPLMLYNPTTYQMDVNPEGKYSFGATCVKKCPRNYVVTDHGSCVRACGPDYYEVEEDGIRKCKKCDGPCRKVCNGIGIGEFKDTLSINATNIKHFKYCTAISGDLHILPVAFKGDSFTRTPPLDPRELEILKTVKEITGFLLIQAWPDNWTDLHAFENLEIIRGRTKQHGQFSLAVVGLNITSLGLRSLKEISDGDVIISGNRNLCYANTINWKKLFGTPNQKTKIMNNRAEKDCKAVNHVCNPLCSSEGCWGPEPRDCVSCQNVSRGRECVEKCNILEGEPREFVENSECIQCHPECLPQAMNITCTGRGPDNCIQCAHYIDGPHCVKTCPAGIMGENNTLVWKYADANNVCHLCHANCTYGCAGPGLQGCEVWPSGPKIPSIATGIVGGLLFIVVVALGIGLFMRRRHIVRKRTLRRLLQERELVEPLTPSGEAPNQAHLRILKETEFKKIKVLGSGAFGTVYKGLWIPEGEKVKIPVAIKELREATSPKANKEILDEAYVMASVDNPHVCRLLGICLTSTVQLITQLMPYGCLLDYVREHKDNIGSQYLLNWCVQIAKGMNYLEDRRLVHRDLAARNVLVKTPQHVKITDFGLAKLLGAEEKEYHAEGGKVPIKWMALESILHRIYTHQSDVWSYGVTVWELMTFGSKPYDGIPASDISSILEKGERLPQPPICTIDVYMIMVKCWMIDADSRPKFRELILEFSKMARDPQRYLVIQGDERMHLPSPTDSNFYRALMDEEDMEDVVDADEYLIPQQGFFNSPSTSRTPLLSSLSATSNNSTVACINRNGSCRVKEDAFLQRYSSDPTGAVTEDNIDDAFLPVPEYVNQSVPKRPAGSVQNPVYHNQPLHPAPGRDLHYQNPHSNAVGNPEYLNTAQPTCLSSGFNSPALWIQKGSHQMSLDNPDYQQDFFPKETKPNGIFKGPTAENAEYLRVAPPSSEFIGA

Structure (SMILES)	level of PDGF β-receptor protein present in the cells (PDGF β-receptor)	inhibition of PDGF-BB induced PDGF β-receptor tyrosine-phosphorylation (PDGF β-receptor)	IC50 (EGFR) [µM]	reversibility of the effect on IMA SMC upon removal of the tyrphostin ([1]; 25 μM)	inhibition at 25 µM ([1]; Homo sapiens, 120 h, read-out: mean reduction / inhibition of IMA SMC proliferation compared to untreated or DMSO-treated cells) [%]	inhibition at 10 µM [2] [%]
Cc1nc2cc3nc(-c4ccccc4)cnc3cc2n1C [AG1851]	without affecting the level	completely inhibited	> 30	completely reversible	54	–
Cc1nc2cc3nc(-c4cccs4)cnc3cc2n1C [AG1992]	without affecting the level	completely inhibited	> 30	–	–	52
